Source: patent US12589104B2, “Thiosaccharides for use in treating coronavirus infection” (priority 2020, dated 2026)
Structures can show the parent of a compound that is named as a salt.

What was measured:
[1] = type: physicochemical; conditions: 11 mg/mL in vehicle, Aerogen Solo vibrating mesh nebulizer
[2] = molecular target: T1, RBD of SARS-2-S binding to ACE2 (Severe acute respiratory syndrome coronavirus 2, UniProt P0DTC2); design: species or system SARS-CoV-2
T1 construct: Recombinantly expressed RBD of SARS-2-S was first immobilized to a surface

[3] = tested on: VSV pseudotype bearing the SARS-2-S protein (VSV-S); type: cell-based, SARS-CoV-2
[4] = tested on: SARS-CoV-2, isolate USA-WA1/2020; type: cell-based
[5] = molecular target: T2, SARS-CoV-2 RBD^original binding to ACE2 (Severe acute respiratory syndrome coronavirus 2, UniProt P0DTC2); conditions: for binding of RBD^original to ACE2 at one and two hours post exposure and wash: 5 mM drug for 1 hour, washed, ACE2 added after 60 or 120 minutes; for inhibition of binding of RBD^original to ACE2: RBD exposed to drug for 60 minutes, 0 to 20 mM
T2 construct: ACRO Biosystems); purchased ACRO Biosystems

[6] = cited from earlier work
[7] = tested on: SARS CoV2 (isolate USA-WA1/2020); design: species or system Syrian hamsters (Mesocricetus auratus); conditions: hamster, in vivo
SARS-2-S pseudovirus = type: cell-based, SARS-CoV-2

## OC1C(O)[C@H](O)C(CS)O[C@@H]1O[C@@H]1OC(CS)[C@@H](O)C(O)C1O (stereo partly drawn) [MUC-031, 6,6′-dithiotrehalose]
[1]
  average mass median aerodynamic diameter (MMAD) of the exposure atmosphere: 2.60 μm

## OC1C(O)[C@H](O)C(CS)O[C@@H]1O[C@H]1OC(CS)[C@@H](O)C(O)C1O (stereo partly drawn) [MUC, 6,6′-dithiotrehalose]
[2]
  inhibition of binding of ACE2 to SARS-2-S: inhibited binding of ACE2 to SARS-2-S
  persistence of binding inhibition after drug is washed out: binding inhibition persists following drug contact
  potency in inhibiting ACE2 binding compared to NAC: stronger potency
[3]
  effectiveness for inhibiting viral entry compared to NAC: more effective than NAC
  inhibition of VSV-S cellular entry: inhibited VSV-S cellular entry
  inhibition of VSV-S entry: All three concentrations of MUC resulted in potent inhibition of VSV-S entry

## NCCS [Cysteamine]
[4]
  cytopathic effects in virus-infected cells, virus exposed to drug prior to infection: significantly inhibited
[5]
  binding of RBD^original to ACE2 at one and two hours post exposure and wash: binding inhibition was retained for two hours after drug removal
  inhibition of binding of RBD^original to ACE2: strong inhibitory effects
[6]
  pKa (thiol group): 8.2
[7]
  interleukin-6 levels in lung lavage: lower than control
  lung weights: lower than in control groups
  lymphocytes in BAL fluid: decreases
  neutrophils in BAL fluid: decreases
  total leukocyte counts in the bronchoalveolar lavage (BAL) fluid: lower than control

## O=S(=O)(O)CCS [MESNA, 2-Mercaptoethane sulfonate, sodium salt]
[5]
  binding of RBD^original to ACE2 at one and two hours post exposure and wash: binding inhibition was retained for two hours after drug removal
  inhibition of binding of RBD^original to ACE2: strong inhibitory effects
SARS-2-S pseudovirus
  antiviral efficacy in vitro compared to NAC: superior antiviral efficacy in vitro

## NCCCNCCSP(=O)(O)O [amifostine, Amifostine]
SARS-2-S pseudovirus
  pseudovirus cell entry after pretreatment of SARS-2-S pseudovirus with drug: did not inhibit viral cell entry

## NCCCNCCS [WR-1065]
[5]
  binding of RBD^original to ACE2 at one and two hours post exposure and wash: binding inhibition was retained for two hours after drug removal
  inhibition of binding of RBD^original to ACE2: strong inhibitory effects

## N[C@@H](CSCC(=O)O)C(=O)O [carbocysteine, Carbocysteine]
[4]
  cytopathic effects in virus-infected cells, virus exposed to drug prior to infection: significantly inhibited
SARS-2-S pseudovirus
  pseudovirus cell entry after pretreatment of SARS-2-S pseudovirus with drug: did not inhibit viral cell entry

## CC(=O)N[C@@H](CS)C(=O)O [NAC, N-acetyl-L-cysteine]
[2]
  inhibition of binding of ACE2 to SARS-2-S: inhibited binding of ACE2 to SARS-2-S
[3]
  inhibition of VSV-S cellular entry: inhibited VSV-S cellular entry
  inhibition of VSV-S entry: only 5 and 25 mM of NAC resulted in significant cell entry inhibition
